According to patent US11141410B2 (MERCK SHARP & DOHME CORP., priority 2015, dated 2021):

Experiments:
[1] = tested on: MRSA COL (MB5393); experiment: TarO Inhibitor/β-Lactam Synergy Assay (growth, OD600); assay type: cell-based, Staphylococcus aureus; conditions: for MITC95 TarO inhibitor + 4 μg/mL IPM; Bacteria: SA_MB5393: in combination with 4 μg/mL imipenem (IPM); for MITC95 TarO inhibitor + 8 μg/mL DCX; Bacteria: SA_MB5393: in combination with 8 μg/mL dicloxacillin (DCX)
Outline: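 TarO inhibitors titrated 2-fold from 200 μM (2% DMSO) against MRSA COL, 5×10^5 CFU in CAMHB, with β-lactam fixed at clinical breakpoint (imipenem 4 μg/ml or dicloxacillin 8 μg/ml). Incubated 20 h at 37 °C without shaking; relative growth read as OD600.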

[2] = tested on: MRSA COL (MB5393); experiment: as above; assay type: cell-based; conditions: Staphylococcus aureus, TarO inhibitor alone, >200 μM = 95% growth inhibition not achieved, 20 hours at 37° C., read-out: MITC95 TarO inhibitor alone, Bacteria: SA_MB5393

Compound | MITC95 TarO inhibitor + 4 μg/mL IPM; Bacteria: SA_MB5393 [1] [µM] | MITC95 TarO inhibitor + 8 μg/mL DCX; Bacteria: SA_MB5393 [1] [µM] | IC95 [2] [µM]
C[C@H]1[C@@H](c2cc(Cl)cc(C(F)(F)F)c2)OC(=O)N1C(=O)CCc1cccc2ccccc12 [Example 66, (4S,5R)-5-[3-chloro-5-(trifluoromethyl)phenyl]-4-methyl-3-(3-naphthalen-1-ylpropanoyl)-1,3-oxazolidin-2-one] | 0.03 | 0.20 | > 200
C[C@H]1[C@@H](c2cc(C(F)(F)F)cc(C(F)(F)F)c2)OC(=O)N1C(=O)CCc1cccc2ccccc12 [Example 67, (4S,5R)-5-[3,5-bis(trifluoromethyl)phenyl]-4-methyl-3-(3-naphthalen-1-ylpropanoyl)-1,3-oxazolidin-2-one] | 0.01 |  | > 200
C[C@H]1[C@@H](c2cc(C(F)(F)F)cc(C(F)(F)F)c2)OC(=O)N1C(=O)CCc1cccc2sccc12 [Example 68, (4S,5R)-3-[3-(1-benzothiophen-4-yl)propanoyl]-5-[3,5-bis(trifluoromethyl)phenyl]-4-methyl-1,3-oxazolidin-2-one] | 0.01 | 0.20 | > 200
C[C@H]1[C@@H](c2cccc(OC(F)(F)F)c2)OC(=O)N1C(=O)CCc1cccc2ccccc12 [Example 69, (4S,5R)-4-methyl-3-(3-naphthalen-1-ylpropanoyl)-5-[3-(trifluoromethoxy)phenyl]-1,3-oxazolidin-2-one] | 0.11 | 0.39 | > 200
C[C@H]1[C@@H](c2cc(F)cc(C(F)(F)F)c2)OC(=O)N1C(=O)CCc1cncc2ccccc12 [Example 70, (4S,5R)-5-[3-fluoro-5-(trifluoromethyl)phenyl]-3-(3-isoquinolin-4-ylpropanoyl)-4-methyl-1,3-oxazolidin-2-one] | 0.19 | 0.91 | > 200
C[C@H]1[C@@H](c2cc(C(F)(F)F)cc(C(F)(F)F)c2)OC(=O)N1C(=O)Cc1cccc2ccccc12 [Example 71, (4S,5R)-5-[3,5-bis(trifluoromethyl)phenyl]-4-methyl-3-(naphthalen-1-ylacetyl)-1,3-oxazolidin-2-one] | 0.89 |  | > 200
C[C@H]1[C@@H](c2cccc(OC(F)(F)F)c2)OC(=O)N1C(=O)CCc1cncc2ccccc12 [Example 72, (4S,5R)-3-(3-isoquinolin-4-ylpropanoyl)-4-methyl-5-[3-(trifluoromethoxy)phenyl]-1,3-oxazolidin-2-one] | 0.21 | 1.56 | > 200
C[C@H]1[C@@H](c2cc(C(F)(F)F)cc(C(F)(F)F)c2)OC(=O)N1C(=O)CCc1cccc2ncccc12 [Example 73, (4S,5R)-5-[3,5-bis(trifluoromethyl)phenyl]-4-methyl-3-(3-quinolin-5-ylpropanoyl)-1,3-oxazolidin-2-one] | 0.56 | 6.25 | > 200
Cc1cc([C@H]2OC(=O)N(C(=O)CCc3cccc4cnccc34)[C@H]2C)cc(C(F)(F)F)c1 [Example 74, (4S,5R)-3-(3-isoquinolin-5-ylpropanoyl)-4-methyl-5-[3-methyl-5-(trifluoromethyl)phenyl]-1,3-oxazolidin-2-one] | 0.30 | 6.25 | > 200
C[C@H]1[C@@H](c2cc(C(F)(F)F)cc(C(F)(F)F)c2)OC(=O)N1C(=O)CCc1cccc2ccncc12 [Example 75, (4S,5R)-5-[3,5-bis(trifluoromethyl)phenyl]-3-(3-isoquinolin-8-ylpropanoyl)-4-methyl-1,3-oxazolidin-2-one] | 0.13 | 0.78 | > 200
O=C(CCc1cncc2ccccc12)N1CC(c2cc(C(F)(F)F)cc(C(F)(F)F)c2)OC1=O (stereo not drawn) [Example 76, 5-[3,5-bis(trifluoromethyl)phenyl]-3-(3-isoquinolin-4-ylpropanoyl)-1,3-oxazolidin-2-one] | 0.39 |  | > 200
Cc1cc(C)cc([C@H]2OC(=O)N(C(=O)CCc3cncc4ccccc34)[C@H]2C)c1 [Example 77, (4S,5R)-5-(3,5-dimethylphenyl)-3-(3-isoquinolin-4-ylpropanoyl)-4-methyl-1,3-oxazolidin-2-one] | 0.63 | 5.21 | > 200
C[C@H]1[C@@H](c2cc(F)c(F)c(F)c2)OC(=O)N1C(=O)CCc1cncc2ccccc12 [Example 78, (4S,5R)-3-(3-isoquinolin-4-ylpropanoyl)-4-methyl-5-(3,4,5-trifluorophenyl)-1,3-oxazolidin-2-one] | 1.17 |  | > 200
Cc1cc(F)cc([C@H]2OC(=O)N(C(=O)CCc3cncc4ccccc34)[C@H]2C)c1 [Example 79, (4S,5R)-5-(3-fluoro-5-methylphenyl)-3-(3-isoquinolin-4-ylpropanoyl)-4-methyl-1,3-oxazolidin-2-one] | 1.17 | 12.50 | > 200
C[C@H]1[C@@H](c2cccc(F)c2)OC(=O)N1C(=O)CCc1cncc2ccccc12 [Example 80, (4S,5R)-5-(3-fluorophenyl)-3-(3-isoquinolin-4-ylpropanoyl)-4-methyl-1,3-oxazolidin-2-one] | 4.69 |  | > 200
COc1cccc([C@H]2OC(=O)N(C(=O)CCc3cccc4ccccc34)[C@H]2C)n1 [Example 81, (4S,5S)-5-(6-methoxypyridin-2-yl)-4-methyl-3-(3-naphthalen-1-ylpropanoyl)-1,3-oxazolidin-2-one] | 0.75 | 100.00 | > 200
C[C@H]1[C@@H](c2ccc(F)c(F)c2)OC(=O)N1C(=O)CCc1cncc2ccccc12 [Example 82, (4S,5R)-5-(3,4-difluorophenyl)-3-(3-isoquinolin-4-ylpropanoyl)-4-methyl-1,3-oxazolidin-2-one] | 9.38 |  | > 200
CC[C@H]1[C@@H](c2cc(C(F)(F)F)cc(C(F)(F)F)c2)OC(=O)N1C(=O)CCc1cncc2ccccc12 [Example 83, (4S,5R)-5-[3,5-bis(trifluoromethyl)phenyl]-4-ethyl-3-(3-isoquinolin-4-ylpropanoyl)-1,3-oxazolidin-2-one] | 0.06 | 0.59 | > 200
C[C@H]1[C@@H](c2cccc(Br)n2)OC(=O)N1C(=O)CCc1cccc2ccccc12 [Example 84, (4S,5S)-5-(6-bromopyridin-2-yl)-4-methyl-3-(3-naphthalen-1-ylpropanoyl)-1,3-oxazolidin-2-one] | 1.56 | 100 | > 200
O=C(CCc1cncc2ccccc12)N1C[C@H](c2cc(C(F)(F)F)cc(C(F)(F)F)c2)OC1=O [Example 85, (5S)-5-[3,5-bis(trifluoromethyl)phenyl]-3-(3-isoquinolin-4-ylpropanoyl)-1,3-oxazolidin-2-one] | 0.55 | 25.00 | > 200
O=C(CCc1cncc2ccccc12)N1CC(c2cccc(F)c2F)OC1=O (stereo not drawn) [Example 86, 5-(2,3-difluorophenyl)-3-(3-isoquinolin-4-ylpropanoyl)-1,3-oxazolidin-2-one] | 1.41 | 8.33 | > 200
COc1cccc([C@H]2OC(=O)N(C(=O)CCc3cncc4ccccc34)[C@H]2C)c1 [Example 87, (4S,5R)-3-(3-isoquinolin-4-ylpropanoyl)-5-(3-methoxyphenyl)-4-methyl-1,3-oxazolidin-2-one] | 2.08 | 50 | > 200
C[C@H]1[C@@H](c2cc(Br)cc(C(F)(F)F)c2)OC(=O)N1C(=O)CCc1cncc2ccccc12 [Example 88, (4S,5R)-5-[3-bromo-5-(trifluoromethyl)phenyl]-3-(3-isoquinolin-4-ylpropanoyl)-4-methyl-1,3-oxazolidin-2-one] | 1.30 | 6.25 | > 200
C[C@H]1[C@@H](c2cc(C(F)(F)F)ccn2)OC(=O)N1C(=O)CCc1cncc2ccccc12 [Example 89, (4S,5S)-3-(3-(isoquinolin-4-yl)propanoyl)-4-methyl-5-(4-(trifluoromethyl)pyridin-2-yl)oxazolidin-2-one] | 6.25 | 75 | > 200
Cc1cccc(OCC(=O)N2C(=O)O[C@H](c3cccc(C(F)(F)F)c3)[C@@H]2C)c1C [Example 90, (4S,5R)-3-(2-(2,3-dimethylphenoxy)acetyl)-4-methyl-5-(3-(trifluoromethyl)-phenyl)oxazolidin-2-one] | 0.39 | 12.50 | > 200
